Data set [1] in a line: Cytotoxicity in cell culture studies. It counts as cell-based. Particulars: data not shown.
Data set [2] relates to differentiated NIH-3T3/L1 adipocytes. The data set can be described thus: Loss of lipid-positive differentiated adipocytes (oil red O, A510; Nile Red). It counts as cell-based. As for the experimental part:
FIG. 8. Prieurianin induced loss of differentiated adipocytes. NIH-3T3/L1 preadipocytes were induced into differentiation. Five days following differentiation, cells were treated with various concentrations (0.5, 1, and 2 μM) of prieurianin for an additional five days and followed by staining with oil red O. Micrographs were obtained from representatives of triplicate experiments. Isopropanol extracts of positively stained cells were quantified spectrophotometrically at 510 nm as shown in histogram on the right. Results are means±S.E. of triplicate experiments.
FIG. 19. Effects of bufalin on preadipocyte differentiation, and dedifferentiation/delipidation in adipo-cytes. NIH-3T3/L1 cells were induced into differentiation and simultaneously treated with either 1 μM of bufalin or 2 μM of prieurianin. Differentiated cells were stained with Nile Red. Alternatively, preadipocytes were induced into differentiation and five days following differentiation, cells were treated with either 1 μM of bufalin or 2 μM of prieurianin for an additional five days and followed by staining with Nile Red. Stained cells were evaluated by fluorescence microscopy.
To assess whether prieurianin has any effect on the differentiated adipocytes, the preadipocytes were allowed to differentiate into adipocytes and then were further cultured for about five days before treating the adipocytes with prieurianin for an additional five to six days, followed by oil red O staining for the presence of lipid accumulating adipocytes.

A further data set relates to NIH-3T3/L1 preadipocytes. It counts as cell-based. As to conditions: 2 μM. The procedure: FIG. 7D. Flow cytometric analysis of annexin V binding to phosphatidylserine, apoptotic cells are on the upper right quadrant. All experiments were conducted in triplicate.
In another data set the test system is PLTP. The data set can be described thus: Serum PLTP protein by Western blot in normal C57BL/6J mice. It counts as in vivo. As to conditions: normal C57BL/6J mice, 0, 2, 5 and 10 mg/kg. As for the experimental part: FIG. 10. Release of adiponectin and PLTP by preadipocytes and adipocytes, and in serum of normal mice. Preadipocytes (B and D) were treated with 2 μM of prieurianin and media collected after 36 hrs for Western blot analysis of either adiponectin (A and B) or PLTP (C and D). Alternatively, five days following differentiation, conditioned media of adipocyets (A and C) were collected for Western analysis. E. Serum of normal C57BL/6J mice given prieurianin or topotecan (0, 2, 5, and 10 mg/kg) was analyzed by Western blot for PLTP.
Background: In western blotting, separated proteins are transferred to a membrane and probed.

This is an account of results in patent publication US20100284925A1, “Small Molecule Intervention for Obesity” (priority 2006, published 2010).

Entries after “also recorded” stand apart in the source; their conditions may differ.

Turning to `C=C1[C@@H]([C@@]2(C)[C@@H](OC(C)=O)CC(=O)O[C@](C)(COC(C)=O)[C@@H]2C(=O)OC)[C@@H](OC=O)[C@H](OC(=O)[C@H](O)[C@H](C)CC)[C@@]2(C)[C@H](c3ccoc3)CC(=O)[C@]12O` [prieurianin], the cytotoxicity entry in data set [1] is “relatively non-cytotoxic compared with topotecan; also recorded: relatively non-cytotoxic compared to topotecan”. For the same compound, the “number of lipid positive cells (oil red O stain A510 absorbance)” value in data set [2] (2 μM) was “almost absent and reduced to a level comparable to the undifferentiated control”. Besides, the “number of oil red O stained cells” value in data set [2] (adipocytes treated five days after differentiation, 0.5, 1 and 2 μM) is “profound dose-dependent reduction in the number of oil red O stained cells”. Besides, in the data set on NIH-3T3/L1 preadipocytes, the “apoptosis (annexin V binding to phosphatidylserine)” value is reported as “did not differentially induce apoptosis”. The “serum PLTP protein levels” value in the data set on PLTP was “a rise in the serum PLTP protein levels”.
